Source: PMC6547440, “The HRP3 PWWP domain recognizes the minor groove of double-stranded DNA and recruits HRP3 to chromatin” (Nucleic Acids Research, 2019)
Values belong to the molecule of their own block, whether it stands above or below them. No end group written: not given here. Me3 = trimethyl-lysine (Lys side chain trimethylated); Me2 = dimethyl-lysine (Lys side chain dimethylated)

Assays:
chromatin of HepG2 cells [1] = assay: ChIP-Seq of GFP-HRP3 variants in HepG2 cells; type: cell-based, human; settings: ChIP-Seq with GFP antibody, HepG2, two biological replicates combined
Protocol: (§1) HepG2 (ATCC HB-8065) and HEK293T human embryonic kidney cells (ATCC #CRL-11268) were cultured in Dulbecco’s modified Eagle’s medium supplemented with 10% FBS. Stable overexpression of wild-type or mutant HRP3 in HepG2 cells was performed using FUGW lentiviral constructs expressing wild-type or mutant HRP3. Lentiviral vector infections ([47]) and plasmid transfections ([48]) were performed as previously described. Overexpression efficiency was determined by western blot.
For chromatin immunoprecipitation, HepG2 cells were cross-linked with 1% formaldehyde at 37°C for 10 min and quenched with 0.125 M glycine for 5 min at room temperature. ChIP was performed using a ChIP assay kit (Millipore) according to the manufacturer’s protocol. Antibodies used for ChIP were GFP (gta-20, Chromo-Tek) and H3K36me3 (ab9050, abcam).
ChIP-Seq data were aligned to human genome hg19 using Bowtie 1.0 allowing one mismatch. Two biological replicates were performed and combined for the analysis. Analysis was performed using the Galaxy ([49]) and Cistrome ([50]) Platform and via custom R scripts for Bioconductor ([51]). Peak calling was performed using MACS2. Promoter definitions were downloaded from the UCSC browser ([52]). DNase I hypersensitivity and MNase-Seq data from ENCODE (GSM816662, GSM920557) ([53]) were used.

H3K36me3 peptide = assay: NMR titration, loss of H3K36me3 peptide binding of HRP3 PWWP mutants; settings: versus wild-type
Protocol: (§2) All 2D ^1H-^15N HSQC NMR spectra were collected on the Bruker Avance III HD 600 MHz and 800 MHz spectrometers at 298 K. The NMR data were processed by NMRPipe ([39]) and analysed by KUJIRA ([40]) running with NMRview ([41]) softwares. Chemical shift perturbation experiments were carried out using ^15N-labelled HRP3 PWWP (residues 1–110) dissolved in buffer containing 20 mM PBS at pH 6.9, 20 mM NaCl and 2 mM DTT. A series of 2D ^1H-^15N HSQC spectra were recorded at HRP3 PWWP:H3K36me3/2/1/0 (residues 29–41) molar ratios of 1:0, 1:0.5, 1:1.5, 1:4, 1:6, 1:10, 1:15 and 1:20, respectively. The combined chemical shift perturbation was calculated using the following equation: Δδ = [(Δδ^1H)^2 + (Δδ^15N/5)^2]^1/2. Dissociation constants were calculated by fitting the data to a single-site ligand-binding model (SigmaPlot).

chromatin of HepG2 cells [2] = assay: Subcellular fractionation, chromatin binding of GFP-HRP3 variants in HepG2 cells; type: cell-based, human; settings: cellular fractionation, western blot anti-GFP
Protocol: as §1
Cellular fractionations were performed using a Subcellular Fractionation Kit (Thermo Scientific, cat. 78840) according to the manufacturer’s protocol. A total of 1 × 10^6 cells were used for each cell line’s fractionation. Soluble nuclear contents and chromatin-bound nuclear contents were analysed by western blotting using anti-GFP (gta-20, Chromo-Tek) and anti-histone H3 (4499S, CST) antibodies.

HRP3 PWWP WT = molecular target: T1, HRP3 PWWP WT (Homo sapiens, UniProt Q9Y3E1); assay: NMR titration of H3K36 peptides with wild-type HRP3 PWWP; type: binding; settings: 15N-labelled HRP3 PWWP (1–110) WT, H3 residues 29–41, 20 mM PBS pH 6.9, 20 mM NaCl, 2 mM DTT, 298 K
T1 construct: using ^15N-labelled HRP3 PWWP (residues 1–110) dissolved in buffer; 6xHis-SUMO (cleaved yes); made in house; host or cells: Escherichia coli Rosetta (DE3)
Protocol: as §2

HRP3 PWWP = assay: DNA geometry analysis of the PWWP/DNA complex structures; design: species or system human
Protocol: DNA geometry was analysed with the 3DNA ([42]) and Curves+ ([43]) programs. Electrostatic potentials were calculated using the DelPhi program ([44]). The minor groove width was measured according to the method described ([45]). In detail, the distances between the ith (i indicates the number of the base from one chain) phosphate atom from one chain and the (i + 4)th atom from the paired chain were used to describe the minor groove width at the ith base. Electrostatic potentials were calculated at the midpoints between the above phosphate atom pairs used to calculate the minor groove widths.

[3] = molecular target: HRP3 PWWP K18A/N76A/R78A (KNR-A) (UniProt Q9Y3E1 1-110, K18A;N76A;R78A); assay: MST; MST: 50 mM KCl, 10 mM Na cacodylate pH 6.5, 2 mM DTT, 200 nM FAM-dsDNA; ITC: 10 mM PBS pH 7.0, 50 mM NaCl, 2 mM b-ME, 20 C; nucleosome EMSA: 20 mM Tris pH 7.5; settings: protein: recombinant; tags: none (His-SUMO removed); label: 5'-FAM (MST); blunt; self-complementary
HRP3 PWWP (1-110) WT = HRP3 PWWP (1-110) WT (UniProt Q9Y3E1 1-110); assay: as above; settings: protein: recombinant, tags: none (His-SUMO removed), label: 5'-FAM (MST), blunt
[4] = molecular target: T2, HRP3 PWWP domain (residues 1–110) F48A (human, UniProt Q9Y3E1 1-110, F48A); assay: NMR titration; 2D 1H-15N HSQC chemical shift perturbation of 15N-labelled HRP3 PWWP (1–110); H3 peptide (29–41) added to molar ratios 1:0 to 1:20; 298 K; 20 mM PBS pH 6.9, 20 mM NaCl, 2 mM DTT; single-site ligand-binding fit; settings: both partners purified
T2 construct: HDGF-related protein 3 (HRP3, HDGFL3), human, residues 1-110 holding the PWWP domain, aromatic cage mutant; they are not repeated for the mutants; source: E. coli Rosetta (DE3), purified (nickel column, gel filtration), 15N-labelled

[5] = molecular target: T3, HRP3 PWWP domain (residues 1–110) E53A (human, UniProt Q9Y3E1 1-110, E53A); assay: as above; settings: both partners purified
T3 construct: HDGF-related protein 3 (HRP3, HDGFL3), human, residues 1-110 holding the PWWP domain; they are not repeated for the mutants; source: E. coli Rosetta (DE3), purified (nickel column, gel filtration), 15N-labelled

[6] = molecular target: T4, HRP3 PWWP domain (residues 1–110) (human, UniProt Q9Y3E1 1-110); assay: as above; settings: both partners purified
T4 construct: HDGF-related protein 3 (HRP3, HDGFL3), human, residues 1-110 holding the PWWP domain; His-SUMO tag removed by ULP1 protease; also called HRP3 PWWP (1–110); HRP3(1-110); source: E. coli Rosetta (DE3), purified (nickel column, gel filtration), 15N-labelled

[7] = molecular target: T5, HRP3 PWWP domain (residues 1–110) Y22A (human, UniProt Q9Y3E1 1-110, Y22A); assay: as above; settings: both partners purified
T5 construct: HDGF-related protein 3 (HRP3, HDGFL3), human, residues 1-110 holding the PWWP domain, aromatic cage mutant; they are not repeated for the mutants; source: E. coli Rosetta (DE3), purified (nickel column, gel filtration), 15N-labelled

HRP3 PWWP N76A = HRP3 PWWP N76A (UniProt Q9Y3E1 1-110, N76A); assay: MST; affinity unchanged vs WT; MST: 50 mM KCl, 10 mM Na cacodylate pH 6.5, 2 mM DTT, 200 nM FAM-dsDNA; ITC: 10 mM PBS pH 7.0, 50 mM NaCl, 2 mM b-ME, 20 C; nucleosome EMSA: 20 mM Tris pH 7.5; settings: protein: recombinant; tags: none (His-SUMO removed); label: 5'-FAM (MST); blunt; self-complementary
Sequence of HRP3 PWWP N76A (Q9Y3E1 1-110 N76A): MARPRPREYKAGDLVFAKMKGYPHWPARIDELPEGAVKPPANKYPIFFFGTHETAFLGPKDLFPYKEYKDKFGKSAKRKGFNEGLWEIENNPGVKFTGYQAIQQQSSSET

Sequence of HRP3 PWWP (1-110) WT (Q9Y3E1 1-110): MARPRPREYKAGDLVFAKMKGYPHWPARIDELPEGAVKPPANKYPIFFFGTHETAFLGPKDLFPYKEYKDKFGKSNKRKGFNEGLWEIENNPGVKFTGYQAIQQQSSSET
T1 sequence (Q9Y3E1 1-110): as above
T4 sequence (Q9Y3E1 1-110): as above
Sequence of HRP3 PWWP K18A/N76A/R78A (KNR-A) (Q9Y3E1 1-110 K18A/N76A/R78A): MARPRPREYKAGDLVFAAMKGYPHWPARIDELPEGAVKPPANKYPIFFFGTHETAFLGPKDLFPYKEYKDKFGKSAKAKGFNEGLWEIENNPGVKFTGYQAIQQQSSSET
T3 sequence (Q9Y3E1 1-110 E53A): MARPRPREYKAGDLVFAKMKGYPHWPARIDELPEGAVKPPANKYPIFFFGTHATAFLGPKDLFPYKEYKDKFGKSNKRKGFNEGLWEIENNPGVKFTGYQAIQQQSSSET
T5 sequence (Q9Y3E1 1-110 Y22A): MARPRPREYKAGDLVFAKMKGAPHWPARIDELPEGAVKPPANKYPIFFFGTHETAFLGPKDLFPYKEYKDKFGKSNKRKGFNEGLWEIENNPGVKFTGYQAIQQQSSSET
T2 sequence (Q9Y3E1 1-110 F48A): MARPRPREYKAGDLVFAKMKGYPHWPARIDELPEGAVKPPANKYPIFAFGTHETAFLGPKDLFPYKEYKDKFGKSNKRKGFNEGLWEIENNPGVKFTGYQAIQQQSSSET

Molecule: Y22A: HRP3 PWWP aromatic cage mutant
chromatin binding / recruitment by ChIP-Seq (chromatin of HepG2 cells [1]): weaker consequences | fold loss of binding affinity for the H3K36me3 peptide (H3K36me3 peptide): 15 fold | chromatin binding (chromatin of HepG2 cells [2]): but not the H3K36me3 binding amino acids (Y22A) alone, dramatically reduced the chromatin binding

Molecule: K18A: DNA binding mutant of human HRP3, GFP fusion
chromatin binding (chromatin of HepG2 cells [2]): dramatically reduced the chromatin binding

Molecule: CC(C)[C@H](NC(=O)CNC(=O)CNC(=O)[C@@H](NC(=O)[C@H](C)NC(=O)[C@@H]1CCCN1C(=O)[C@H](C)N)[C@@H](C)O)C(=O)N[C@@H](CCCCN)C(=O)N[C@@H](CCCCN)C(=O)N1CCC[C@H]1C(=O)N[C@@H](Cc1c[nH]cn1)C(=O)N[C@@H](CCCNC(=N)N)C(=O)N[C@@H](Cc1ccc(O)cc1)C(=O)O [H3K36me0]
Kd (HRP3 PWWP WT): 4700 ± 1200 µM

Molecule: 5′-GCGCGCGCGC-3′ [10-mer-GC]
average helical twist (HRP3 PWWP; 3DNA): 35.3 ° | average propeller twist (HRP3 PWWP; 3DNA): −7.3 ° | bending angle towards the minor groove per 6 bps (HRP3 PWWP; Curve+ software): 3.4 ° | narrowing of minor groove upon PWWP binding (HRP3 PWWP; crystal structure of complex): ~2.7 Å | width of the minor groove, PWWP-binding region (HRP3 PWWP; crystal structure of complex): 10.5 Å | width of the minor groove, PWWP-free region (HRP3 PWWP; crystal structure of complex): 13.2 Å

Molecule: KYNR-A: HRP3 K18A/Y22A/N76A/R78A mutant, GFP fusion
chromatin binding / recruitment by ChIP-Seq (chromatin of HepG2 cells [1]): strong reduction in chromatin binding | chromatin binding (chromatin of HepG2 cells [2]): dramatically reduced the chromatin binding

Molecule: KNR-A: HRP3 K18A/N76A/R78A mutant, GFP fusion
chromatin binding / recruitment by ChIP-Seq (chromatin of HepG2 cells [1]): strong reduction in chromatin binding | chromatin binding (chromatin of HepG2 cells [2]): dramatically reduced the chromatin binding

B1: 16-mer-GC (dsDNA)
DNA 1: GCGCGCGCGCGCGCGC
DNA 2: GCGCGCGCGCGCGCGC
binding signal [3]: 5.7 fold loss vs WT | Kd (HRP3 PWWP (1-110) WT; self-complementary): 2.8 µM

B2: 16-mer-random (dsDNA)
DNA 1: CAGGCTGGTCTTGAAC
DNA 2: GTTCAAGACCAGCCTG
Kd (HRP3 PWWP (1-110) WT): 3.2 µM

B4: 16-mer-TA (dsDNA)
DNA 1: TATATATATATATATA
DNA 2: TATATATATATATATA
binding signal [3]: 58 fold loss vs WT | Kd (HRP3 PWWP (1-110) WT; self-complementary): 1.3 µM | binding result (HRP3 PWWP N76A): binds

Results, then the molecule that gave them:

fold loss of binding affinity for the H3K36me3 peptide (H3K36me3 peptide): 5.7 fold
Molecule: E53A: HRP3 PWWP mutant E53A

fold loss of binding affinity for the H3K36me3 peptide (H3K36me3 peptide): 6.7 fold
Molecule: F48A: HRP3 PWWP aromatic cage mutant

Kd (HRP3 PWWP WT): 5100 ± 1900 µM
Molecule: CNCCCC[C@H](NC(=O)[C@@H](NC(=O)CNC(=O)CNC(=O)[C@@H](NC(=O)[C@H](C)NC(=O)[C@@H]1CCCN1C(=O)[C@H](C)N)[C@@H](C)O)C(C)C)C(=O)N[C@@H](CCCCN)C(=O)N1CCC[C@H]1C(=O)N[C@@H](Cc1c[nH]cn1)C(=O)N[C@@H](CCCNC(=N)N)C(=O)N[C@@H](Cc1ccc(O)cc1)C(=O)O [H3K36me1]

fold loss of binding affinity against wild type [4]: 6.7 fold | fold decrease of binding against wild type [5]: 5.7 fold | Kd [6]: 1300 µM | fold loss of binding affinity against wild type [7]: 15 fold
B3: H3K36me3 histone peptide (H3 residues 29–41) (peptide, UniProt P68431 30-42, looked up)
peptide: APATGGVK(Me3)KPHRY
notes: histone H3, residues 29-41; also called H3K36me3 peptide; H3K36me3-containing peptide

Kd [6]: 2100 µM
B5: H3K36me2 histone peptide (H3 residues 29–41) (peptide, UniProt P68431 30-42, looked up)
peptide: APATGGVK(Me2)KPHRY
notes: histone H3, residues 29-41; also called H3K36me2-containing peptide
